Reference: patent US9809574B2, “Isoindoline or isoquinoline compounds, a process for their preparation and pharmaceutical compositions containing them” (LES LABORATOIRES SERVIER, priority 2013, dated 2017)
Blank lines part the entries; values can stand above or below the compound they belong to.

What was measured:
[1] = system: RS4; 11 leukaemia cell line; assay: In vitro cytotoxicity, Microculture Tetrazolium Assay (MTT); assay type: cell-based; details: 11 cells exposed for 48 hours
Description: The cytotoxicity studies were carried out on the RS4; 11 leukaemia cell line and on H146 small Cell Lung Carcinoma cell line. The cells are distributed onto microplates and exposed to the test compounds for 48 hours. The cell viability is then quantified by a colorimetric assay, the Microculture Tetrazolium Assay (Cancer Res., 1987, 47, 939-942).

Bcl-2 protein = Bcl-2 protein (histag-Bcl-2, UniProtKB P10415) (Homo sapiens (Human), UniProt P10415); assay: Inhibition of Bcl-2 by the fluorescence polarisation technique; assay type: binding; details: fluorescence polarisation test; incubation for 2 hours; read-out: IC50 (nM) Bcl-2 FP
Sequence of Bcl-2 protein (P10415 whole entry): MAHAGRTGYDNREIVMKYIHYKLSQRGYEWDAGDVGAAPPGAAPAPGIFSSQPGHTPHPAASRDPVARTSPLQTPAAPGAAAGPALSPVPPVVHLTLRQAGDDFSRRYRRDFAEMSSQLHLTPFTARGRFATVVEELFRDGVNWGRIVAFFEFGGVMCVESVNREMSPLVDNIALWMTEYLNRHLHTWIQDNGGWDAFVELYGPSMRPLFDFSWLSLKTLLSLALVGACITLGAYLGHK
Source text: For partial inhibitors, the percentage fluorescence polarisation inhibition for a given concentration of the test compound is indicated.

- IC50 (Bcl-2 protein): 55 nM
SMILES: Cc1c(C(=O)N(C)c2ccc(O)cc2)cc(-c2cc3c(cc2C(=O)N2Cc4ccccc4C[C@H]2C)CN(C(=O)[C@@H](N)c2ccccc2)C3)n1C [Example 173, 5-(2-[(2S)-2-Amino-2-phenylacetyl]-6-{[(3R)-3-methyl-3,4-dihydroisoquinolin-2(1H)-yl]carbonyl}-2,3-dihydro-1H-isoindol-5-yl)-N-(4-hydroxyphenyl)-N,1,2-trimethyl-1H-pyrrole-3-carboxamide]
- IC50 ([1]; Homo sapiens): > 600 nM

- IC50 (Bcl-2 protein): 5.9 nM
SMILES: Cc1c(C(=O)N(C)c2ccc(O)cc2)cc(-c2cc3c(cc2C(=O)N2Cc4ccccc4C[C@H]2C)CN(C(=O)[C@H](N)c2ccccc2)C3)n1C [Example 174, 5-(2-[(2R)-2-Amino-2-phenylacetyl]-6-{[(3R)-3-methyl-3,4-dihydroisoquinolin-2(1H)-yl]carbonyl}-2,3-dihydro-1H-isoindol-5-yl)-N-(4-hydroxyphenyl)-N,1,2-trimethyl-1H-pyrrole-3-carboxamide]
- IC50 ([1]; Homo sapiens): 407 nM

- IC50 (Bcl-2 protein): 4.2 nM
SMILES: Cc1c(C(=O)N(C)c2ccc(O)cc2)cc(-c2cc3c(cc2C(=O)N2Cc4ccccc4C[C@H]2C)CN(C(=O)[C@H](O)c2ccccc2)C3)n1C [Example 175, N-(4-Hydroxyphenyl)-5-(2-[(2R)-2-hydroxy-2-phenylacetyl]-6-{[(3R)-3-methyl-3,4-dihydroisoquinolin-2(1H)-yl]carbonyl}-2,3-dihydro-1H-isoindol-5-yl)-N,1,2-trimethyl-1H-pyrrole-3-carboxamide]
- IC50 ([1]; Homo sapiens): 90 nM

SMILES: CCN(C(=O)c1cc(-c2cc3c(cc2C(=O)N2Cc4ccccc4C[C@H]2CN2CCOCC2)CN(C(=O)Oc2ccccc2)CC3)n(C)c1C)c1ccc(O)cc1 [Example 185, Phenyl 6-{4-[ethyl(4-hydroxyphenyl)carbamoyl]-1,5-dimethyl-1H-pyrrol-2-yl}-7-[(3S)-3-(morpholin-4-ylmethyl)-1,2,3,4-tetrahydroisoquinoline-2-carbonyl]-1,2,3,4-tetrahydroisoquinoline-2-carboxylate]
- IC50 ([1]; Homo sapiens): 4.5 nM
- IC50 (Bcl-2 protein): 3.7 nM

SMILES: CCCN(C(=O)c1cc(-c2cc3c(cc2C(=O)N2Cc4ccccc4C[C@H]2CN2CCOCC2)CN(C(=O)Oc2ccccc2)CC3)n(C)c1C)c1ccc(O)cc1 [Example 186, Phenyl 6-{4-[(4-hydroxyphenyl)(propyl)carbamoyl]-1,5-dimethyl-1H-pyrrol-2-yl}-7-[(3S)-3-(morpholin-4-ylmethyl)-1,2,3,4-tetrahydroisoquinoline-2-carbonyl]-1,2,3,4-tetrahydroisoquinoline-2-carboxylate]
- IC50 ([1]; Homo sapiens): 4.5 nM
- IC50 (Bcl-2 protein): 2.5 nM

SMILES: CCCCN(C(=O)c1cc(-c2cc3c(cc2C(=O)N2Cc4ccccc4C[C@H]2CN2CCOCC2)CN(C(=O)Oc2ccccc2)CC3)n(C)c1C)c1ccc(O)cc1 [Example 187, Phenyl 6-{4-[butyl(4-hydroxyphenyl)carbamoyl]-1,5-dimethyl-1H-pyrrol-2-yl}-7-[(3S)-3-(morpholin-4-ylmethyl)-1,2,3,4-tetrahydroisoquinoline-2-carbonyl]-1,2,3,4-tetrahydroisoquinoline-2-carboxylate]
- IC50 ([1]; Homo sapiens): 4.6 nM
- IC50 (Bcl-2 protein): 3 nM

SMILES: CCCCN(CCCC)C(=O)c1cc(-c2cc3c(cc2C(=O)N2Cc4ccccc4C[C@H]2CN2CCOCC2)CN(C(=O)Oc2ccccc2)CC3)n(C)c1C [Example 197, Phenyl 6-[4-(dibutylcarbamoyl)-1,5-dimethyl-1H-pyrrol-2-yl]-7-[(3S)-3-(morpholin-4-ylmethyl)-1,2,3,4-tetrahydroisoquinoline-2-carbonyl]-1,2,3,4-tetrahydroisoquinoline-2-carboxylate]
- IC50 ([1]; Homo sapiens): > 150 nM
- IC50 (Bcl-2 protein): 26 nM

SMILES: Cc1c(C(=O)N(C)c2ccc(O)cc2)cc(-c2cc3c(cc2C(=O)N2Cc4ccccc4C[C@H]2CN(C)C)CN(C(=O)Oc2ccccc2)CC3)n1C [Example 211, Phenyl 7-[(3S)-3-[(dimethylamino)methyl]-1,2,3,4-tetrahydroisoquinoline-2-carbonyl]-6-{4-[(4-hydroxyphenyl)(methyl)carbamoyl]-1,5-dimethyl-1H-pyrrol-2-yl}-1,2,3,4-tetrahydroisoquinoline-2-carboxylate]
- IC50 ([1]; Homo sapiens): 6.9 nM
- IC50 (Bcl-2 protein): 3.4 nM

SMILES: Cc1c(C(=O)N(C)c2ccc(O)cc2)cc(-c2cc3c(cc2C(=O)N2Cc4ccccc4C[C@H]2CN2CCN(C)CC2)CN(C(=O)Oc2ccccc2)CC3)n1C [Example 214, Phenyl 6-{4-[(4-hydroxyphenyl)(methyl)carbamoyl]-1,5-dimethyl-1H-pyrrol-2-yl}-7-[(3S)-3-[(4-methylpiperazin-1-yl)methyl]-1,2,3,4-tetrahydroisoquinoline-2-carbonyl]-1,2,3,4-tetrahydroisoquinoline-2-carboxylate]
- IC50 ([1]; Homo sapiens): 4.1 nM
- IC50 (Bcl-2 protein): 2.7 nM

SMILES: Cc1c(C(=O)N(C)c2ccc(O)cc2)cc(-c2cc3c(cc2C(=O)N2Cc4ccccc4C[C@H]2CCN2CCOCC2)CN(C(=O)Oc2ccccc2)CC3)n1C [Example 216, Phenyl 6-{4-[(4-hydroxyphenyl)(methyl)carbamoyl]-1,5-dimethyl-1H-pyrrol-2-yl}-7-[(3S)-3-[2-(morpholin-4-yl)ethyl]-1,2,3,4-tetrahydroisoquinoline-2-carbonyl]-1,2,3,4-tetrahydroisoquinoline-2-carboxylate]
- IC50 ([1]; Homo sapiens): 2.9 nM
- IC50 (Bcl-2 protein): 2.4 nM

- IC50 (Bcl-2 protein): 2.9 nM
SMILES: CCCCN(C(=O)c1cc(-c2cc3c(cc2C(=O)N2Cc4ccccc4C[C@H]2CN2CCOCC2)CN(C(=O)Cc2ccccc2)CC3)n(C)c1C)c1ccc(O)cc1 [Example 232, N-Butyl-N-(4-hydroxyphenyl)-1,2-dimethyl-5-{7-[(3S)-3-(morpholin-4-ylmethyl)-1,2,3,4-tetrahydroisoquinoline-2-carbonyl]-2-(2-phenylacetyl)-1,2,3,4-tetrahydroisoquinolin-6-yl}-1H-pyrrole-3-carboxamide]
- IC50 ([1]; Homo sapiens): 11 nM

- IC50 (Bcl-2 protein): 4.2 nM
SMILES: Cc1c(C(=O)N(C)c2ccc(O)cc2)cc(-c2cc3c(cc2C(=O)N2Cc4ccccc4C[C@H]2CN2CCOCC2)CN(C(=O)Nc2ccccc2)CC3)n1C [Example 245, 6-{4-[(4-Hydroxyphenyl)(methyl)carbamoyl]-1,5-dimethyl-1H-pyrrol-2-yl}-7-[(3S)-3-(morpholin-4-ylmethyl)-1,2,3,4-tetrahydroisoquinoline-2-carbonyl]-N-phenyl-1,2,3,4-tetrahydroisoquinoline-2-carboxamide]
- IC50 ([1]; Homo sapiens): 92 nM

- IC50 (Bcl-2 protein): 5.2 nM
SMILES: Cc1c(C(=O)N(C)c2ccc(O)cc2)cc(-c2cc3c(cc2C(=O)N2Cc4ccccc4C[C@H]2C)CN(C(=O)Nc2ccccc2)CC3)n1C [Example 253, 6-{4-[(4-Hydroxyphenyl)(methyl)carbamoyl]-1,5-dimethyl-1H-pyrrol-2-yl}-7-[(3R)-3-methyl-1,2,3,4-tetrahydroisoquinoline-2-carbonyl]-N-phenyl-1,2,3,4-tetrahydroisoquinoline-2-carboxamide]
- IC50 ([1]; Homo sapiens): 22 nM

SMILES: Cc1c(C(=O)N(C)c2ccc(O)cc2)cc(-c2cc3c(cc2C(=O)N2Cc4ccccc4C[C@H]2C)CN(C(=O)Oc2ccccc2OCCN(C)C)CC3)n1C [Example 392, 2-[2-(Dimethylamino)ethoxy]phenyl 6-{4-[(4-hydroxyphenyl) (methyl)carbamoyl]-1,5-dimethyl-1H-pyrrol-2-yl}-7-[(3R)-3-methyl-1,2,3,4-tetrahydroisoquinoline-2-carbonyl]-1,2,3,4-tetrahydroisoquinoline-2-carboxylate]
- IC50 ([1]; Homo sapiens): 14 nM
- IC50 (Bcl-2 protein): 2 nM

SMILES: Cc1c(C(=O)N(C)c2ccc(O)cc2)cc(-c2cc3c(cc2C(=O)N2Cc4ccccc4C[C@H]2C)CN(C(=O)Oc2cccc(OCCN(C)C)c2)CC3)n1C [Example 434, 3-[2-(Dimethylamino)ethoxy]phenyl 6-{4-[(4-hydroxyphenyl)(methyl)carbamoyl]-1,5-dimethyl-1H-pyrrol-2-yl}-7-[(3R)-3-methyl-1,2,3,4-tetrahydroisoquinoline-2-carbonyl]-1,2,3,4-tetrahydrisoquinoline-2-carboxylate]
- IC50 [1]: 1.6 nM
- IC50 (Bcl-2 protein): 2.9 nM

SMILES: Cc1c(C(=O)N(C)c2ccccc2)cc(-c2cc3c(cc2C(=O)N2Cc4ccccc4C[C@H]2C)CN(C(=O)Oc2cccc(N(C)CCN(C)C)c2)CC3)n1C [Example 446, 3-{[2-(Dimethylamino)ethyl](methyl)amino}phenyl 6-{1,5-dimethyl-4-[methyl(phenyl)carbamoyl]-1H-pyrrol-2-yl}-7-[(3R)-3-methyl-1,2,3,4-tetrahydroisoquinoline-2-carbonyl]-1,2,3,4-tetrahydroisoquinoline-2-carboxylate]
- IC50 ([1]; Homo sapiens): 14 nM
- IC50 (Bcl-2 protein): 4.3 nM

SMILES: Cc1c(C(=O)N(C)c2ccccc2)cc(-c2cc3c(cc2C(=O)N2Cc4ccccc4C[C@H]2C)CN(C(=O)Oc2cccc(OCCN(C)C)c2)CC3)n1C [Example 448, 3-[2-(Dimethylamino)ethoxy]phenyl 6-{1,5-dimethyl-4-[methyl(phenyl)carbamoyl]-1H-pyrrol-2-yl}-7-[(3R)-3-methyl-1,2,3,4-tetrahydroisoquinoline-2-carbonyl]-1,2,3,4-tetrahydroisoquinoline-2-carboxylate]
- IC50 ([1]; Homo sapiens): 8.2 nM
- IC50 (Bcl-2 protein): 4 nM

SMILES: Cc1c(C(=O)N(C)c2ccc(O)cc2)cc(-c2cc3c(cc2C(=O)N2Cc4ccccc4C[C@H]2C)CN(C(=O)Oc2ccc(N(C)CCN(C)C)cc2)CC3)n1C [Example 474, 4-{[2-(Dimethylamino)ethyl](methyl)amino}phenyl 6-{4-[(4-hydroxyphenyl)(methyl)carbamoyl]-1,5-dimethyl-1H-pyrrol-2-yl}-7-[(3R)-3-methyl-1,2,3,4-tetrahydroisoquinoline-2-carbonyl]-1,2,3,4-tetrahydroisoquinoline-2-carboxylate]
- IC50 ([1]; Homo sapiens): 2.6 nM
- IC50 (Bcl-2 protein): 4.5 nM
